{
  "source": "patent US5229368A",
  "about": "“Composition for prevention and (or) treatment of Aids” (Fujisawa Pharmaceutical Co., Ltd., priority 1987, dated 1993)",
  "key": {"Friend leukemia virus [1]": {"tested_on": "Friend leukemia virus", "experiment": "Test 1: splenomegaly by Friend leukemia virus in mice (severe infection)", "type": "in vivo, C3H/HeN mice", "method": "(§1) Animals: Male C3H/HeN strain mice aged 5 weeks were used in groups of 10. The animals were housed in an isolation room at 21°-25° C. and supplied with food and water at libitum.\nVirus and Induction of splenomegaly: Friend leukemia virus (FLV) was prepared as a 10% suspension of infected C3H/HeN spleen in Hank's balanced saline and was originally supplied by Kitazato University. Following centrifugation (7,000 rpm for 20 mins.) the virus preparation was frozen and stored at -70° C. 0.2 ml/head of FLV diluted 2-, 5-, or 10-fold to induce infection of varying severity was challenged intraperitoneally in mice. […]"}, "Friend leukemia virus [2]": {"tested_on": "Friend leukemia virus", "experiment": "Test 2: splenomegaly by FLV in mice, same method as Test 1 with other doses", "type": "in vivo, C3H/HeN mice", "conditions": "day 14", "method": "as §1\nVirus and Induction of splenomegaly: Friend leukemia virus (FLV) was prepared as a 10% suspension of infected C3H/HeN spleen in Hank's balanced saline and was originally supplied by Kitazato University. Following centrifugation (7,000 rpm for 20 mins.) the virus preparation was frozen and stored at -70° C. 0.2 ml/head of FLV diluted 2-, 5-, or 10-fold to induce infection of varying severity was challenged intraperitoneally in mice.\nDosing schedules: FK-565 was given intravenously or orally in doses of 0.01 mg/kg to 1 mg/kg 4 hours after challenge and once on days 3, 7, 11 (total 4 doses)."}, "Friend leukemia virus [3]": {"tested_on": "Friend leukemia virus", "experiment": "Test 3: survival rate of mice in lethal FLV infection", "type": "in vivo", "conditions": "42 days", "method": "Friend leukemia virus FLV) was prepared as a 20% suspension of infected C3H/HeN spleen in Hank's balanced saline and 0.2 ml/head of the FLV preparation was challenged intraperitoneally to mice in groups of 12. The viruses were challenged in amounts large enough to cause death within a short time.\nFK-565 (1, 0.01 mg/kg) was given intravenously once a day on days 1, 4, 7, 11, 14, 18, 21 and 25 (total: 8 doses).\nThe mice were given the two drugs according to the same dosing schedules."}, "[4]": {"tested_on": "Rauscher murine leukemia virus complex(RLV)", "conditions": "mice infected with RLV; cited from earlier work"}, "[5]": {"conditions": "therapeutic dose of AZT; cited from earlier work"}, "[6]": {"conditions": "FK-565 0.01 mg/kg i.v. alone, day 14"}, "[7]": {"conditions": "FK-565 0.1 mg/kg i.v. alone, day 14"}, "[8]": {"conditions": "FK-565 0.1 mg/kg p.o. alone, day 14"}, "[9]": {"conditions": "FK-565 0.01 mg/kg i.v., AZT 0 mg/kg"}, "[10]": {"conditions": "FK-565 1 mg/kg i.v., AZT 0 mg/kg"}},
  "data": [
    {"smiles": "Cc1cn([C@H]2C[C@H](N=[N+]=[N-])[C@@H](CO)O2)c(=O)[nH]c1=O", "note": "[AZT, 3'-Azido-3'-deoxythymidine]", "values": [
      {"measurement": "Inhibition %", "setting": "Friend leukemia virus [1]; AZT 5 mg/kg i.p. alone, day 14", "result": 24.8, "unit": "%"},
      {"measurement": "Spleen weight", "setting": "Friend leukemia virus [1]; AZT 5 mg/kg i.p. alone, day 14", "result": "1107.8 ± 158.3", "unit": "mg"},
      {"measurement": "Spleen weight", "setting": "Friend leukemia virus [1]; AZT 20 mg/kg i.p. alone, 27 doses, FLV 2-fold dilution, 14 days after infection", "result": "944.0 ± 104.9", "unit": "mg"},
      {"measurement": "Inhibition %", "setting": "Friend leukemia virus [1]; AZT 20 mg/kg i.p. alone, day 14", "result": 38.1, "unit": "%"},
      {"measurement": "(%) inhibition of splenomegaly", "setting": "Friend leukemia virus [2]; AZT 0.63 mg/kg i.p. alone", "result": 33.3, "unit": "%"},
      {"measurement": "Spleen", "setting": "Friend leukemia virus [2]; AZT 0.63 mg/kg i.p. alone", "result": "633 ± 67.6", "unit": "mg"},
      {"measurement": "(%) inhibition of splenomegaly", "setting": "Friend leukemia virus [2]; AZT 2.5 mg/kg i.p. alone", "result": 38.3, "unit": "%"},
      {"measurement": "Spleen", "setting": "Friend leukemia virus [2]; AZT 2.5 mg/kg i.p. alone", "result": "605 ± 134.9", "unit": "mg"},
      {"measurement": "(%) inhibition of splenomegaly", "setting": "Friend leukemia virus [2]; AZT 10 mg/kg i.p. alone", "result": 49.3, "unit": "%"},
      {"measurement": "Spleen", "setting": "Friend leukemia virus [2]; AZT 10 mg/kg i.p. alone", "result": "519 ± 130.6", "unit": "mg"},
      {"measurement": "(%) inhibition of splenomegaly", "setting": "Friend leukemia virus [2]; AZT 40 mg/kg i.p. alone", "result": 81.1, "unit": "%"},
      {"measurement": "Spleen", "setting": "Friend leukemia virus [2]; AZT 40 mg/kg i.p. alone", "result": "267 ± 51.6", "unit": "mg"},
      {"measurement": "(%) inhibition of splenomegaly", "setting": "Friend leukemia virus [2]; AZT 160 mg/kg i.p. alone", "result": 97.4, "unit": "%"},
      {"measurement": "survival rate", "setting": "Friend leukemia virus [3]; AZT 4 mg/kg/time i.p., FK-565 0", "result": 0},
      {"measurement": "survival rate", "setting": "Friend leukemia virus [3]; AZT 20 mg/kg/time i.p., FK-565 0", "result": 25},
      {"measurement": "survival rate", "setting": "Friend leukemia virus [3]; AZT 100 mg/kg/time i.p., FK-565 0", "result": 50},
      {"measurement": "survival time in infected mice", "setting": "[4]", "result": "prolong significantly the survival time"},
      {"measurement": "side effects", "setting": "[5]", "result": "anemia, leukopenia, neutropenia and occasional thrombocytopenia"}
    ]},
    {"smiles": "CCCCCCC(=O)N[C@H](CCC(=O)N[C@@H](CCC[C@@H](N)C(=O)O)C(=O)N[C@H](C)C(=O)O)C(=O)O", "note": "[FK-565]", "values": [
      {"measurement": "Inhibition %", "setting": "Friend leukemia virus [1]; [6]", "result": 36.4, "unit": "%"},
      {"measurement": "Spleen weight", "setting": "Friend leukemia virus [1]; [6]", "result": "1047.0 ± 106.1", "unit": "mg"},
      {"measurement": "Inhibition %", "setting": "Friend leukemia virus [1]; [7]", "result": 37.0, "unit": "%"},
      {"measurement": "Spleen weight", "setting": "Friend leukemia virus [1]; [7]", "result": "1038.0 ± 176.8", "unit": "mg"},
      {"measurement": "Inhibition %", "setting": "Friend leukemia virus [1]; [8]", "result": 27.8, "unit": "%"},
      {"measurement": "Spleen weight", "setting": "Friend leukemia virus [1]; [8]", "result": "1133.0 ± 170.0", "unit": "mg"},
      {"measurement": "Spleen weight", "setting": "Friend leukemia virus [1]; FK-565 1 mg/kg i.v. alone, 4 doses, day 14", "result": "947.0 ± 124.1", "unit": "mg"},
      {"measurement": "Inhibition %", "setting": "Friend leukemia virus [1]; FK-565 1 mg/kg i.v. alone, day 14", "result": 46.5, "unit": "%"},
      {"measurement": "Spleen weight", "setting": "Friend leukemia virus [1]; FK-565 1 mg/kg p.o. alone, 4 doses, day 14", "result": "984.0 ± 144.8", "unit": "mg"},
      {"measurement": "Inhibition %", "setting": "Friend leukemia virus [1]; FK-565 1 mg/kg p.o. alone, day 14", "result": 38.9, "unit": "%"},
      {"measurement": "(%) inhibition of splenomegaly", "setting": "Friend leukemia virus [2]; [9]", "result": 19.6, "unit": "%"},
      {"measurement": "Spleen", "setting": "Friend leukemia virus [2]; [9]", "result": "750 ± 119.0", "unit": "mg"},
      {"measurement": "(%) inhibition of splenomegaly", "setting": "Friend leukemia virus [2]; [10]", "result": 55.3, "unit": "%"},
      {"measurement": "Spleen", "setting": "Friend leukemia virus [2]; [10]", "result": "487 ± 47.3", "unit": "mg"},
      {"measurement": "survival rate", "setting": "Friend leukemia virus [3]; FK-565 0.01 mg/kg/time i.v., AZT 0", "result": 8},
      {"measurement": "survival rate", "setting": "Friend leukemia virus [3]; FK-565 1 mg/kg/time i.v., AZT 0", "result": 17}
    ]}
  ]
}
